Measurements reported in US10125123B2, “Small molecule IRE1-α inhibitors” (Cornell University, priority 2016, dated 2018).

Target: T1, IRE1α (Homo sapiens, UniProt O75460)
T1 construct: purchased SignalChem
Test: In vitro FRET assay (XBP1 RNA probe cleavage by IRE1α)
Conditions: biochemical FRET assay, 2 nM IRE1α
Method: In vitro FRET assay was performed to evaluate the ability of select compounds to inhibit IRE1, the results of which are summarized in the following table.
To perform the in vitro FRET assay, 1× complete assay buffer (CAB; […], 50 mM sodium citrate pH 7.15, 1 mM magnesium acetate, 0.02% Tween 20) was used to dilute SignalChem IRE1α in protein to a final concentration of 2 nM. Selected compounds were serially diluted with DMSO in a non-binding black 384-well plate for a total of 15 μl in each well. 2 μl of the serially diluted compound or DMSO control were then added to new wells containing 98 μl of 1×CAB, for a total volume of 100 μl, 10 μl of which were then transferred to wells of a new plate. 5 μl of the diluted IRE1α was then added to each well. 5 μl of a […] XBP1 RNA probe was then added to each well. Fluorescence was then read over 30 minutes in kinetic mode (485/515 nm). Two RNA probes were used, XBP1 wildtype (CAUGUCCGCAGCACAUG; SEQ ID NO: 1) which is able to be spliced by active IRE1α or XBP1 mutant (CAUGUCCCCAGCACAUG; SEQ ID NO: 2) which is unable to be spliced. Each probe contained a 5′ 6-FAM modification and a 3′ IOWA Black FQ modification. […]

T1 sequence (O75460 19-977): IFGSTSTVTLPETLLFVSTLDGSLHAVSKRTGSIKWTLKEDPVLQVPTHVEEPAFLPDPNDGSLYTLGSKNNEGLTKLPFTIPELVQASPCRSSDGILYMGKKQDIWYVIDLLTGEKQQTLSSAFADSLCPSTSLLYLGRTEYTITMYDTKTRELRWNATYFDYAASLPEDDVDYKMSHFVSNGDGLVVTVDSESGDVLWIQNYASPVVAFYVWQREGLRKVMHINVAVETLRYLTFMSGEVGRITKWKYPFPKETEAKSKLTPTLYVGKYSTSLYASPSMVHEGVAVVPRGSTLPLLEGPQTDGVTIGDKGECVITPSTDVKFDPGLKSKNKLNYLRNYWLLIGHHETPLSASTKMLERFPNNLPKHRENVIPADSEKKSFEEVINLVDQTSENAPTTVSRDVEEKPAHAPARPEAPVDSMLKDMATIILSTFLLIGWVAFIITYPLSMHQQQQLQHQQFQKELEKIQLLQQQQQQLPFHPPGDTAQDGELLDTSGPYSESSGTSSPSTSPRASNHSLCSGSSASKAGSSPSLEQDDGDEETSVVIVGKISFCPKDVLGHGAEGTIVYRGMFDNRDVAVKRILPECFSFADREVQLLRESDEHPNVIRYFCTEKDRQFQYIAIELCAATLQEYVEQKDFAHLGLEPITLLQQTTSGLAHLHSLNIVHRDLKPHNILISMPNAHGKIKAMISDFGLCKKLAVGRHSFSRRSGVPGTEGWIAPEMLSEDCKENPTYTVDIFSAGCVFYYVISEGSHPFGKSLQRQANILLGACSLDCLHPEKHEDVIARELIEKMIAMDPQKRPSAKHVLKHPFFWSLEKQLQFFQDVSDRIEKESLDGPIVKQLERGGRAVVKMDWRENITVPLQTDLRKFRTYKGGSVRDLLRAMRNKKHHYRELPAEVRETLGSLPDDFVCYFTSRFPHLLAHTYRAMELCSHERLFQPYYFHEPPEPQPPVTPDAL

EC50 [µM]	Structure (SMILES)
5 to 50	CN1CCN(Cc2ccc(NC(=O)Cc3cc(-c4ccc5ccncc5c4)n(C)n3)cc2C(F)(F)F)CC1 [Compound 31, 2-(5-(isoquinolin-7-yl)-1-methyl-1H-pyrazol-3-yl)-N-(4-((4-methylpiperazin-1-yl)methyl)-3-(trifluoromethyl)phenyl)acetamide]
> 100	CN1CCN(Cc2ccc(NC(=O)Cc3cc(-c4ccc5cc(N)ncc5c4)n(C)n3)cc2C(F)(F)F)CC1 [Compound 32, 2-(5-(3-aminoisoquinolin-7-yl)-1-methyl-1H-pyrazol-3-yl)-N-(4-((4-methylpiperazin-1-yl)methyl)-3-(trifluoromethyl)phenyl)acetamide]
5 to 50	CN1CCN(Cc2ccc(NC(=O)Cc3cc(-c4ccc5nc(N)ncc5c4)n(C)n3)cc2C(F)(F)F)CC1 [Compound 33, 2-(5-(2-aminoquinazolin-6-yl)-1-methyl-1H-pyrazol-3-yl)-N-(4-((4-methylpiperazin-1-yl)methyl)-3-(trifluoromethyl)phenyl)acetamide]
5 to 50	CN1CCN(Cc2ccc(NC(=O)Nc3nc(-c4ccc5ccncc5c4)n(C)n3)cc2C(F)(F)F)CC1 [Compound 34, 1-(5-(isoquinolin-7-yl)-1-methyl-1H-1,2,4-triazol-3-yl)-3-(4-((4-methylpiperazin-1-yl)methyl)-3-(trifluoromethyl)phenyl)urea]
≤ 5	CCN1CCN(Cc2ccc(NC(=O)Nc3cc(-c4ccc5ccncc5c4)n(C)n3)cc2C(F)(F)F)CC1 [Compound 35, 1-(4-((4-ethylpiperazin-1-yl)methyl)-3-(trifluoromethyl)phenyl)-3-(5-(isoquinolin-7-yl)-1-methyl-1H-pyrazol-3-yl)urea]
≤ 5	Cn1nc(NC(=O)Nc2ccc(CN3CCN(CCO)CC3)c(C(F)(F)F)c2)cc1-c1ccc2ccncc2c1 [Compound 36, 1-(4-((4-(2-hydroxyethyl)piperazin-1-yl)methyl)-3-(trifluoromethyl)phenyl)-3-(5-(isoquinolin-7-yl)-1-methyl-1H-pyrazol-3-yl)urea]
≤ 5	CC(C)N1CCN(Cc2ccc(NC(=O)Nc3cc(-c4ccc5ccncc5c4)n(C)n3)cc2C(F)(F)F)CC1 [Compound 37, 1-(4-((4-isopropylpiperazin-1-yl)methyl)-3-(trifluoromethyl)phenyl)-3-(5-(isoquinolin-7-yl)-1-methyl-1H pyrazol-3-yl)urea]
> 100	Cn1nc(NC(=O)Nc2ccc(CN3CCCCCC3)c(C(F)(F)F)c2)cc1-c1ccc2ccncc2c1 [Compound 38, 1-(4-(azepan-1-ylmethyl)-3-(trifluoromethyl)phenyl)-3-(5-(isoquinolin-7-yl)-1-methyl-1H-pyrazol-3-yl)urea]
> 100	Cn1nc(NC(=O)Nc2ccc(CN3CCOCC3)c(C(F)(F)F)c2)cc1-c1ccc2ccncc2c1 [Compound 39, 1-(5-(isoquinolin-7-yl)-1-methyl-1H-pyrazol-3-yl)-3-(4-(morpholinomethyl)-3-(trifluoromethyl)phenyl)urea]
> 100	Cn1nc(NC(=O)Nc2ccc(CN3CCC(c4ccccc4)CC3)c(C(F)(F)F)c2)cc1-c1ccc2ccncc2c1 [Compound 40, 1-(5-(isoquinolin-7-yl)-1-methyl-1H-pyrazol-3-yl)-3-(4-((4-phenylpiperidin-1-yl)methyl)-3-(trifluoromethyl)phenyl)urea]
> 100	Cn1nc(NC(=O)Nc2ccc(CN3CCC(O)CC3)c(C(F)(F)F)c2)cc1-c1ccc2ccncc2c1 [Compound 41, 1-(4-((4-hydroxypiperidin-1-yl)methyl)-3-(trifluoromethyl)phenyl)-3-(5-(isoquinolin-7-yl)-1-methyl-1H-pyrazol-3-yl)urea]
> 100	Cn1nc(NC(=O)Nc2ccc(CN3CCCCC3)c(C(F)(F)F)c2)cc1-c1ccc2ccncc2c1 [Compound 42, 1-(5-(isoquinolin-7-yl)-1-methyl-1H-pyrazol-3-yl)-3-(4-(piperidin-1-ylmethyl)-3-(trifluoromethyl)phenyl)urea]
> 100	CC1CCCCN1Cc1ccc(NC(=O)Nc2cc(-c3ccc4ccncc4c3)n(C)n2)cc1C(F)(F)F (stereo not shown) [Compound 43, 1-(5-(isoquinolin-7-yl)-1-methyl-1H-pyrazol-3-yl)-3-(4-((2-methylpiperidin-1-yl)methyl)-3-(trifluoromethyl)phenyl)urea]
5 to 50	CN1CCN(Cc2ccc(NC(=O)Nc3cc(-c4ccc5ccncc5c4)n(C)n3)cc2Br)CC1 [Compound 44, 1-(3-bromo-4-((4-methylpiperazin-1-yl)methyl)phenyl)-3-(5-(isoquinolin-7-yl)-1-methyl-1H-pyrazol-3-yl)urea]
≤ 5	Cc1nc(NC(=O)Nc2ccc(CN3CCN(C)CC3)c(C(F)(F)F)c2)[nH]c1-c1ccc2ccncc2c1 [Compound 46, 1-(5-(isoquinolin-7-yl)-4-methyl-4H-imidazol-2-yl)-3-(4-((4-methylpiperazin-1-yl)methyl)-3-(trifluoromethyl)phenyl)urea]
> 100	CN1CCN(Cc2ccc(NC(=O)Nc3cc(-c4ccc5ccncc5c4)n(C)n3)cc2)CC1 [Compound 47, 1-(5-(isoquinolin-7-yl)-1-methyl-1H-pyrazol-3-yl)-3-(4-((4-methylpiperazin-1-yl)methyl)phenyl)urea]

EC50 [µM]	Structure (SMILES)
5 to 50	CN1CCC(Cc2ccc(NC(=O)Nc3cc(-c4ccc5cc(N)ncc5c4)n(C)n3)cc2C(F)(F)F)CC1 [Compound 48, 1-(5-(3-aminoisoquinolin-7-yl)-1-methyl-1H-pyrazol-3-yl)-3-(4-((1-methylpiperidin-4-yl)methyl)-3-(trifluoromethyl)phenyl)urea]
> 100	CN1CCC(Cc2ccc(NC(=O)Cc3cc(-c4ccc5nc(N)ncc5c4)n(C)n3)cc2C(F)(F)F)CC1 [Compound 49, 2-(5-(2-aminoquinazolin-6-yl)-1-methyl-1H-pyrazol-3-yl)-N-(4-((1-methylpiperidin-4-yl)methyl)-3-(trifluoromethyl)phenyl)acetamide]
5 to 50	Cc1nc(NC(=O)Nc2ccc(CN3CCN(C)CC3)c(C(F)(F)F)c2)n(C)c1-c1ccc2cc(N)ncc2c1 [Compound 50, 1-(5-(3-aminoisoquinolin-7-yl)-1,4-dimethyl-1H-imidazol-2-yl)-3-(4-((4-methylpiperazin-1-yl)methyl)-3-(trifluoromethyl)phenyl)urea]
5 to 50	CN1CCN(Cc2ccc(CC(=O)Nc3cc(-c4ccc5cc(N)ncc5c4)n(C)n3)cc2C(F)(F)F)CC1 [Compound 51, N-(5-(3-aminoisoquinolin-7-yl)-1-methyl-1H-pyrazol-3-yl)-2-(4-((4-methylpiperazin-1-yl)methyl)-3-(trifluoromethyl)phenyl)acetamide]
≤ 5	CN1CCN(Cc2ccc(NC(=O)Nc3cc(-c4ccc5cc(N)ncc5c4)[nH]n3)cc2C(F)(F)F)CC1 [Compound 52, 1-(5-(3-aminoisoquinolin-7-yl)-1H-pyrazol-3-yl)-3-(4-((4-methylpiperazin-1-yl)methyl)-3-(trifluoromethyl)phenyl)urea]
> 100	CN1CCN(Cc2ccc(NC(=O)Nc3cc(-c4ccc(-c5cccc6nccnc56)cc4)n(C)n3)cc2C(F)(F)F)CC1 [Compound 53]
≤ 5	CN1CCN(Cc2ccc(NC(=O)Nc3cc(-c4ccc(-c5cccn6ccnc56)cc4)n(C)n3)cc2C(F)(F)F)CC1 [Compound 54, 1-(5-(4-(imidazo[1,2-a]pyridin-8-yl)phenyl)-1-methyl-1H-pyrazol-3-yl)-3-(4-((4-methylpiperazin-1-yl)methyl)-3-(trifluoromethyl)phenyl)urea]
5 to 50	CN1CCN(Cc2ccc(NC(=O)Nc3cc(-c4ccc(-c5ccc(N)nc5)cc4)[nH]n3)cc2C(F)(F)F)CC1 [Compound 55, 1-(5-(4-(6-aminopyridin-3-yl)phenyl)-1H-pyrazol-3-yl)-3-(4-((4-methylpiperazin-1-yl)methyl)-3-(trifluoromethyl)phenyl)urea]
> 100	O=C(Nc1ccccc1)Nc1ccc2oc(-c3cccnc3)nc2c1 [Compound 56, 1-phenyl-3-(2-(pyridin-3-yl)benzo[d]oxazol-5-yl)urea]
5 to 50	O=C(Nc1cccc(C(F)(F)F)c1)Nc1ccc2oc(-c3cccnc3)nc2c1 [Compound 57, 1-(2-(pyridin-3-yl)benzo[d]oxazol-5-yl)-3-(3-(trifluoromethyl)phenyl)urea]
> 100	O=C(C#Cc1ccccc1)Nc1ccc2oc(-c3cccnc3)nc2c1 [Compound 58, 3-phenyl-N-(2-(pyridin-3-yl)benzo[d]oxazol-5-yl)propiolamide]
5 to 50	O=C(Nc1ccc2oc(-c3cccnc3)nc2c1)[C@H]1C[C@H]1c1ccccc1 [Compound 59, (1S,2R)-2-phenyl-N-(2-(pyridin-3-yl)benzo[d]oxazol-5-yl)cyclopropane-1-carboxamide]
5 to 50	O=C(/C=C\c1ccccc1)Nc1ccc2oc(-c3cccnc3)nc2c1 [Compound 60, (Z)-3-phenyl-N-(2-(pyridin-3-yl)benzo[d]oxazol-5-yl)acrylamide]
> 100	CN1CCN(Cc2ccc(C(=O)Nc3cc(-c4ccc5cc(N)ncc5c4)n(C)n3)c3ccccc23)CC1 [Compound 61, N-(5-(3-aminoisoquinolin-7-yl)-1-methyl-1H-pyrazol-3-yl)-4-((4-methylpiperazin-1-yl)methyl)-1-naphthamide]
> 100	CN1COc2cc(NC(=O)Nc3cc(-c4ccc5ccncc5c4)n(C)n3)ccc2C1 [Compound 62, 1-(5-(isoquinolin-7-yl)-1-methyl-1H-pyrazol-3-yl)-3-(3-methyl-3,4-dihydro-2H-benzo[e][1,3]oxazin-7-yl)urea]
